# Assays:
# [1] = test system: Salmonella typhimurium; assay: Antimicrobial activity against Salmonella typhimurium ATCC 19430 incubated for 18 hrs by agar dilution method; type: functional, Salmonella enterica subsp. enterica serovar Typhimurium; conditions: Salmonella enterica, ATCC 19430, 18 h
# [2] = test system: Pseudomonas aeruginosa; assay: Antimicrobial activity against Pseudomonas aeruginosa ATCC 27853 incubated for 18 hrs by agar dilution method; type: functional; conditions: ATCC 27853, 18 h
# [3] = test system: Staphylococcus aureus; assay: Antimicrobial activity against Staphylococcus aureus ATCC 25923 incubated for 18 hrs by agar dilution method; type: functional; conditions: ATCC 25923, 18 h
# [4] = test system: Streptococcus pyogenes; assay: Antimicrobial activity against Streptococcus pyogenes ATCC 19615 incubated for 18 hrs by agar dilution method; type: functional; conditions: ATCC 19615, 18 h
SMILES,MIC [1] [µM],MIC [2] [µM],MIC [3] [µM],MIC [4] [µM]
CCn1cc(C(=O)O)c(=O)c2cc(F)c(N3CCN(C(=O)[C@H](Cc4ccccc4)NC(=O)c4cn(CC)c5cc6c(cc5c4=O)OCO6)CC3)cc21,1760,1760,1760,1760
CCn1cc(C(=O)O)c(=O)c2cc(F)c(N3CCN(C(=O)CCNC(=O)c4cn(CC)c5cc6c(cc5c4=O)OCO6)CC3)cc21,61.6,493,30.8,247
CCn1cc(C(=O)O)c(=O)c2cc(F)c(N3CCN(C(=O)CCCNC(=O)c4cn(CC)c5nc(C)ccc5c4=O)CC3)cc21,505,505,505,1010
CCn1cc(C(=O)NCCC(=O)N2CCN(c3cc4c(cc3F)c(=O)c(C(=O)O)cn4C3CC3)CC2)c(=O)c2cc3c(cc21)OCO3,7.4,1940,1940,1940
O=C(O)c1cn(C2CC2)c2cc(N3CCNCC3)c(F)cc2c1=O [CIPROFLOXACIN],9.2,74.6,74.6,2390
CCn1cc(C(=O)O)c(=O)c2ccc(C)nc21 [NALIDIXIC ACID],7.2,14.5,3770,3770
CCn1cc(C(=O)O)c(=O)c2cc(F)c(N3CCNCC3)cc21 [NORFLOXACIN],10.3,336,1350,1350
CCn1cc(C(=O)O)c(=O)c2cc3c(cc21)OCO3 [OXOLINIC ACID],7.5,15,3910,1960
CCn1cc(C(=O)NCCCC(=O)N2CCN(c3cc4c(cc3F)c(=O)c(C(=O)O)cn4C3CC3)CC2)c(=O)c2cc3c(cc21)OCO3,59.1,1890,1890,1890
CCn1cc(C(=O)O)c(=O)c2cc(F)c(N3CCN(C(=O)[C@H](Cc4c[nH]c5ccccc45)NC(=O)c4cn(CC)c5nc(C)ccc5c4=O)CC3)cc21,868,1740,1740,1740
CC[C@H](C)[C@H](NC(=O)c1cn(CC)c2nc(C)ccc2c1=O)C(=O)N1CCN(c2cc3c(cc2F)c(=O)c(C(=O)O)cn3CC)CC1,1930,1930,1930,1930
CCn1cc(C(=O)O)c(=O)c2cc(F)c(N3CCN(C(=O)[C@H](Cc4c[nH]c5ccccc45)NC(=O)c4cn(CC)c5cc6c(cc5c4=O)OCO6)CC3)cc21,1670,1670,1670,1670
CCn1cc(C(=O)NCC(=O)N2CCN(c3cc4c(cc3F)c(=O)c(C(=O)O)cn4C3CC3)CC2)c(=O)c2ccc(C)nc21,64.7,,,
CCn1cc(C(=O)NCCC(=O)N2CCN(c3cc4c(cc3F)c(=O)c(C(=O)O)cn4C3CC3)CC2)c(=O)c2ccc(C)nc21,15.7,2030,1010,7.8
CCn1cc(C(=O)N[C@@H](Cc2c[nH]c3ccccc23)C(=O)N2CCN(c3cc4c(cc3F)c(=O)c(C(=O)O)cn4C3CC3)CC2)c(=O)c2ccc(C)nc21,427,1710,3.3,854
CCn1cc(C(=O)N[C@@H](Cc2ccccc2)C(=O)N2CCN(c3cc4c(cc3F)c(=O)c(C(=O)O)cn4C3CC3)CC2)c(=O)c2ccc(C)nc21,1800,1800,1800,1800
CC[C@H](C)[C@H](NC(=O)c1cn(CC)c2cc3c(cc2c1=O)OCO3)C(=O)N1CCN(c2cc3c(cc2F)c(=O)c(C(=O)O)cn3C2CC2)CC1,909,1820,454,1820
CC[C@H](C)[C@H](NC(=O)c1cn(CC)c2cc3c(cc2c1=O)OCO3)C(=O)N1CCN(c2cc3c(cc2F)c(=O)c(C(=O)O)cn3CC)CC1,1850,462,1850,1850
CCn1cc(C(=O)O)c(=O)c2cc(F)c(N3CCN(C(=O)CNC(=O)c4cn(CC)c5cc6c(cc5c4=O)OCO6)CC3)cc21,2020,,,
CCn1cc(C(=O)O)c(=O)c2cc(F)c(N3CCN(C(=O)CCCNC(=O)c4cn(CC)c5cc6c(cc5c4=O)OCO6)CC3)cc21,,,482,965
CCn1cc(C(=O)O)c(=O)c2cc(F)c(N3CCN(C(=O)CCNC(=O)c4cn(CC)c5nc(C)ccc5c4=O)CC3)cc21,2070,2070,2070,2070
CCn1cc(C(=O)NCC(=O)N2CCN(c3cc4c(cc3F)c(=O)c(C(=O)O)cn4C3CC3)CC2)c(=O)c2cc3c(cc21)OCO3,7.6,,,
CCn1cc(C(=O)O)c(=O)c2cc(F)c(N3CCN(C(=O)CNC(=O)c4cn(CC)c5nc(C)ccc5c4=O)CC3)cc21,2120,,33,
CC[C@H](C)[C@H](NC(=O)c1cn(CC)c2nc(C)ccc2c1=O)C(=O)N1CCN(c2cc3c(cc2F)c(=O)c(C(=O)O)cn3C2CC2)CC1,1900,1900,1900,1900
CCn1cc(C(=O)N[C@@H](Cc2c[nH]c3ccccc23)C(=O)N2CCN(c3cc4c(cc3F)c(=O)c(C(=O)O)cn4C3CC3)CC2)c(=O)c2cc3c(cc21)OCO3,25.6,411,51.3,411
CCn1cc(C(=O)N[C@@H](Cc2ccccc2)C(=O)N2CCN(c3cc4c(cc3F)c(=O)c(C(=O)O)cn4C3CC3)CC2)c(=O)c2cc3c(cc21)OCO3,433,1730,1730,1730
CCn1cc(C(=O)O)c(=O)c2cc(F)c(N3CCN(C(=O)[C@H](Cc4ccccc4)NC(=O)c4cn(CC)c5nc(C)ccc5c4=O)CC3)cc21,115,918,28.6,459

# Source: ChEMBL document CHEMBL3608264, “Novel antibacterial active quinolone-fluoroquinolone conjugates and 2D-QSAR studies” (2015)
